Laboratory results: patent US20240327463A1, “ANTIBACTERIAL PRODUCTS” (priority 2017, published 2024)
In brackets after ≈: the same amount, converted by molar mass. Like-named read-outs stand apart in the source and are kept apart here.

How the values were obtained:
[1] = test system: MRSA ATCC 33591
Procedure: (§1) For MIC testing all peptides were dissolved in DMSO (according to the method of L. L. Ling, et al., Nature 2015, 517, 455-459). Bacteria were grown on Mueller Hinton broth (oxoid). All incubations were at 37° C. Dilutions were carried out using Mueller Hinton. 100 μl of autoclaved Mueller Hinton broth was added to wells 2-12 on a 96-well plate. 200 μl of the peptide was added to well one at a concentration of 512 μg/ml. 100 μl of peptide in well one was taken up and pipetted into well two. The mixture was then mixed via pipetting before 100 μl was taken up and pipetted into well three. This process was repeated up to well 11. […] This was repeated three times. The 96-well plates were then incubated for 24 hours. The MIC was determined to be the lowest concentration at which there was no growth visible.

[2] = test system: M. smegmatis ATCC 607; test: microbe, parasite or virus in culture
Procedure: as §1

[3] = test system: MRSA ATCC 700699; test: microbe, parasite or virus in culture
Procedure: as §1

[4] = test system: MRSA DM21455 (eye); test: microbe, parasite or virus in culture
Procedure: as §1

[5] = test system: MRSA DR 42412 (sputum); test: microbe, parasite or virus in culture
Procedure: as §1

[6] = test system: Staphylococcus aureus ATCC 29213; test: microbe, parasite or virus in culture
Procedure: as §1

[7] = test system: VRE ATCC 29212; test: microbe, parasite or virus in culture
Procedure: as §1

[8] = test system: VRE ATCC 700802; test: microbe, parasite or virus in culture
Procedure: as §1

[9] = Staphylococcus aureus ATCC 29213, Table 4B

MIC (MRSA*) ([1]; ATCC 33591)	MIC ([2]; ATCC 607)	MIC ([3]; ATCC 700699)	MIC ([4]; DM21455 (eye))	MIC ([5]; DR 42412 (sputum))	MIC ([6]; ATCC 29213)	MIC ([7]; ATCC 29212)	MIC ([8]; ATCC 700802)	SMILES	MBC ([3]; ATCC 700699)	MBC ([4]; DM21455 (eye))	MBC ([5]; DR 42412 (sputum))	MBC ([6]; ATCC 29213)	other results
								CC[C@H](C)[C@H](NC(=O)[C@@H](Cc1ccccc1)NC)C(=O)N[C@@H](CO)C(=O)N[C@H](CCC(N)=O)C(=O)N[C@@H](C(=O)N[C@H](C(=O)N[C@@H](CO)C(=O)N[C@H]1C(=O)N[C@@H](C)C(=O)N[C@@H](CCCNC(=N)N)C(=O)N[C@@H]([C@@H](C)CC)C(=O)O[C@H]1C)[C@@H](C)CC)[C@@H](C)CC [Compound 6, Arg10-teixobactin, reference compound]					MIC (MRSA*) ([1]; MRSA ATCC 33591, Table 4A): 2 µg/mL (≈ 1.61 µM); MIC ([2]; M. smegmatis ATCC 607, Table 4B): 1 to 2 µg/mL; MIC ([3]; MRSA 1: MRSA ATCC 700699, Mueller Hinton Broth, Table 4B): 1 µg/mL (≈ 0.804 µM); MBC ([3]; MRSA 1: MRSA ATCC 700699, Table 4B): 2 µg/mL (≈ 1.61 µM); MIC ([4]; MRSA 3: MRSA DM21455 (eye), clinical isolate, Table 4B): 0.5 µg/mL (≈ 0.402 µM); MBC ([4]; MRSA 3: MRSA DM21455 (eye), Table 4B): 1 µg/mL (≈ 0.804 µM); MBC ([5]; MRSA 2: MRSA DR 42412 (sputum), Table 4B): 0.5 µg/mL (≈ 0.402 µM); MBC [6, 9]: 1 µg/mL (≈ 0.804 µM); MIC [6, 9]: 0.25 µg/mL (≈ 0.201 µM); MIC ([7]; VRE 2: VRE ATCC 29212, Table 4B): 2 µg/mL (≈ 1.61 µM); MIC ([8]; VRE 1: VRE ATCC 700802, Table 4B): 2 µg/mL (≈ 1.61 µM)
0.5 µg/mL (≈ 0.421 µM)	1 µg/mL (≈ 0.842 µM)	1 µg/mL (≈ 0.842 µM)	0.25 µg/mL (≈ 0.211 µM)	0.5 µg/mL (≈ 0.421 µM)	0.25 µg/mL (≈ 0.211 µM)	0.5 µg/mL (≈ 0.421 µM)	0.5 µg/mL (≈ 0.421 µM)	CC[C@@H](C)[C@@H](NC(=O)[C@@H](CCC(N)=O)NC(=O)[C@H](CO)NC(=O)[C@@H](NC(=O)[C@@H](Cc1ccccc1)NC)[C@@H](C)CC)C(=O)N[C@H](C(=O)N[C@@H](CO)C(=O)N[C@H]1C(=O)N[C@@H](C)C(=O)N[C@@H](C(C)C)C(=O)N[C@@H]([C@@H](C)CC)C(=O)O[C@H]1C)[C@@H](C)CC [Compound 17]	4 µg/mL (≈ 3.37 µM)	2 µg/mL (≈ 1.68 µM)	4 µg/mL (≈ 3.37 µM)	1 µg/mL (≈ 0.842 µM)	
0.25 µg/mL (≈ 0.208 µM)	0.5 µg/mL (≈ 0.416 µM)	0.25 µg/mL (≈ 0.208 µM)	≤0.0625 µg/mL	≤0.0625 µg/mL	≤0.0625 µg/mL	≤0.0625 µg/mL	≤0.0625 µg/mL	CC[C@@H](C)[C@@H](NC(=O)[C@@H](CCC(N)=O)NC(=O)[C@H](CO)NC(=O)[C@@H](NC(=O)[C@@H](Cc1ccccc1)NC)[C@@H](C)CC)C(=O)N[C@H](C(=O)N[C@@H](CO)C(=O)N[C@H]1C(=O)N[C@@H](C)C(=O)N[C@@H]([C@@H](C)CC)C(=O)N[C@@H]([C@@H](C)CC)C(=O)O[C@H]1C)[C@@H](C)CC [Compound 18, Ile10-teixobactin]	1 µg/mL (≈ 0.832 µM)	0.125 µg/mL (≈ 0.104 µM)	≤0.0625 µg/mL	0.125 µg/mL (≈ 0.104 µM)	
0.25 µg/mL (≈ 0.208 µM)	1 µg/mL (≈ 0.832 µM)	0.25 µg/mL (≈ 0.208 µM)	≤0.0625 µg/mL	≤0.0625 µg/mL	≤0.0625 µg/mL	0.25 µg/mL (≈ 0.208 µM)	0.25 µg/mL (≈ 0.208 µM)	CC[C@@H](C)[C@@H](NC(=O)[C@@H](CCC(N)=O)NC(=O)[C@H](CO)NC(=O)[C@@H](NC(=O)[C@@H](Cc1ccccc1)NC)[C@@H](C)CC)C(=O)N[C@H](C(=O)N[C@@H](CO)C(=O)N[C@H]1C(=O)N[C@@H](C)C(=O)N[C@@H](CC(C)C)C(=O)N[C@@H]([C@@H](C)CC)C(=O)O[C@H]1C)[C@@H](C)CC [Compound 19, Leu10-teixobactin]	2 µg/mL (≈ 1.66 µM)	≤0.0625 µg/mL	≤0.0625 µg/mL	0.125 µg/mL (≈ 0.104 µM)	
